Data: publication PMC6422238, “Absence of a human ortholog of rodent Kupffer cell galactose-binding receptor encoded by the CLEC4f gene” (Glycobiology, 2019)

Key:
[1] = target: T1, Bovine CLEC4f protein (Bos taurus, UniProt A0AAA9RVQ7); experiment: affinity chromatography on galactose-Sepharose; format: binding; settings: immobilised galactose (divinyl sulfone coupling); 25 mM CaCl2, 150 mM NaCl, pH 7.8; Ca2+-dependent, eluted with EDTA
T1 construct: C-terminal fragment of the extracellular domain (neck + CRD), E. coli BL21(DE3) inclusion bodies, renatured; 35 kDa calculated; trimer; borders only in supplement
T1 sequence (A0AAA9RVQ7 274-591 limits assumed): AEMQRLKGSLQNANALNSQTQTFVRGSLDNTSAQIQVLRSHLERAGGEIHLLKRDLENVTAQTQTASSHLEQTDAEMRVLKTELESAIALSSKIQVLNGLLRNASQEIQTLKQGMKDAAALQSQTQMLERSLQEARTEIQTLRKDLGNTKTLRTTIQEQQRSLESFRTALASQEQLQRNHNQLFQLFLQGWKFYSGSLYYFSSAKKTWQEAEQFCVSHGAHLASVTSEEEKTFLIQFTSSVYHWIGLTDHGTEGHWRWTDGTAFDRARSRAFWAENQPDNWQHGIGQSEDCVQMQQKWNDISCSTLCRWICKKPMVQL

[2] = target: T2, Murine CLEC4f protein; murine Kupffer cell receptor (Mus musculus, UniProt P70194); experiment: affinity re-purification of the labelled protein on galactose-Sepharose; format: binding; settings: immobilised galactose; 25 mM CaCl2, 150 mM NaCl, pH 7.8; eluted with EDTA; fluorescein-labelled protein
T2 construct: fluorescein isothiocyanate labelled
T2 sequence (P70194 70-548 limits assumed): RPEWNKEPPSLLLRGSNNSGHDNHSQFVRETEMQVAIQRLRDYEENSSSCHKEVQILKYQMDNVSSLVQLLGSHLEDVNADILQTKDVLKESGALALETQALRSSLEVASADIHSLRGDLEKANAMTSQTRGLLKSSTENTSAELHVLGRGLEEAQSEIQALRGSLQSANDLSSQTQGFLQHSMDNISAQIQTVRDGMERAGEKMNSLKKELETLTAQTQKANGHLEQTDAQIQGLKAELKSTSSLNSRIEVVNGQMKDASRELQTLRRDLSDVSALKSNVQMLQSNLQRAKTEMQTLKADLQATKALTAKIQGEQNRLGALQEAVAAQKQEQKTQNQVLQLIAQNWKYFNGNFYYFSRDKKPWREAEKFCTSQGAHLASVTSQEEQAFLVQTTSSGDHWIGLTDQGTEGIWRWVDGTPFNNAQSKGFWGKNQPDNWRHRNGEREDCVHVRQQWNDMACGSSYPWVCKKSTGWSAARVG

OC[C@H]1OC(O)[C@H](O)[C@@H](O)[C@H]1O (some centres unmarked) [galactose]
affinity chromatography on galactose-Sepharose [1]: confirming that it has galactose-binding activity | affinity re-purification of the labelled protein on galactose-Sepharose [2]: the chimpanzee, bovine and murine proteins all bind to galactose
